Literature values in patent US6696071B2, “Pre-coital and post-coital rinse with anti-viral and skin-protective zinc salts” (priority 2001, dated 2004).

Conditions: ionic dissociation in water

O=C[O-].O=C[O-].[Zn+2] [Zinc formate]
Reported pK values, pK1 (pK1): 0.6
Reported pK values, pK2 (pK2): 0.95
